# Measurements as given in the kinase profiling compilation of Christmann-Franck et al. (2016).
# Several values for one entry are separate records, joined by “and”; a condition that tells them apart may be missing. Equal values may be shown once.
# Legend:
# Experiment in all cases: radiometric filter-binding kinase assay, Kinase HotSpot
# Conditions in all cases: compound 0.5 µM; ATP 10 µM
# RAF1 (human) = RAF1 (human) (UniProt P04049)
# NTRK2 (human) = NTRK2 (human) (UniProt Q16620)
# FER (human) = FER (human) (UniProt P16591)
# CDK5 CDK5R1 p35 (human) = CDK5 CDK5R1 p35 (human) (UniProt Q00535+Q15078)
# NEK4 (human) = NEK4 (human) (UniProt P51957)
# [1] = test system: PRKCQ (human), Q04759 [P330L]
# MAPK10 (human) = MAPK10 (human) (UniProt P53779)
# DYRK1A (human) = DYRK1A (human) (UniProt Q13627)
# PIM3 (human) = PIM3 (human) (UniProt Q86V86)
# PAK1 (human) = PAK1 (human) (UniProt Q13153)
# PAK1 (human), sequence (Q13153 whole entry, looked up): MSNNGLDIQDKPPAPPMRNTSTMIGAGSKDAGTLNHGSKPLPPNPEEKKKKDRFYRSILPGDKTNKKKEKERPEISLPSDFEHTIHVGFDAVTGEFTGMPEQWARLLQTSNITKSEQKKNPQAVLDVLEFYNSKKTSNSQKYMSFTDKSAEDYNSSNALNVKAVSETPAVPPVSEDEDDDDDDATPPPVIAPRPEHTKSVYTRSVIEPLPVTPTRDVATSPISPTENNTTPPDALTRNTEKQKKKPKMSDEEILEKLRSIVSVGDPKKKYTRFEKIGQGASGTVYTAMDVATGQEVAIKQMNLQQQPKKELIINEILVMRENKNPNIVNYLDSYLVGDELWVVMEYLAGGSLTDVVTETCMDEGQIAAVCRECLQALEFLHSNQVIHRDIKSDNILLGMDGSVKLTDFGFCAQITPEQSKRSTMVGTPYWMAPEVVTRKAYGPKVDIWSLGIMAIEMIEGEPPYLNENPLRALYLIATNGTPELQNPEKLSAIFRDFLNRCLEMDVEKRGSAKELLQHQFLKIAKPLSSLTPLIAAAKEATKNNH
# RPS6KA2 KD1 KD2 (human) = RPS6KA2 KD1 KD2 (human) (UniProt Q15349)
# MKNK2 (human) = MKNK2 (human) (UniProt Q9HBH9)
# EPHB4 (human) = EPHB4 (human) (UniProt P54760)
# CSNK1G3 (human) = CSNK1G3 (human) (UniProt Q9Y6M4)
# FGFR3 (human) = FGFR3 (human) (UniProt P22607)
# PRKCG (human) = PRKCG (human) (UniProt P05129)
# PRKCB2 (human) = PRKCB2 (human) (UniProt P05771)
# MST1R (human) = MST1R (human) (UniProt Q04912)
# PKN1 (human) = PKN1 (human) (UniProt Q16512)
# AKT1 (human) = AKT1 (human) (UniProt P31749)
# CAMK2A (human) = CAMK2A (human) (UniProt Q9UQM7)
# FGFR2 (human) = FGFR2 (human) (UniProt P21802)
# STK33 (human) = STK33 (human) (UniProt Q9BYT3)
# PRKCA (human) = PRKCA (human) (UniProt P17252)
# DYRK2 (human) = DYRK2 (human) (UniProt Q92630)
# DYRK2 (human), sequence (Q92630 whole entry, looked up): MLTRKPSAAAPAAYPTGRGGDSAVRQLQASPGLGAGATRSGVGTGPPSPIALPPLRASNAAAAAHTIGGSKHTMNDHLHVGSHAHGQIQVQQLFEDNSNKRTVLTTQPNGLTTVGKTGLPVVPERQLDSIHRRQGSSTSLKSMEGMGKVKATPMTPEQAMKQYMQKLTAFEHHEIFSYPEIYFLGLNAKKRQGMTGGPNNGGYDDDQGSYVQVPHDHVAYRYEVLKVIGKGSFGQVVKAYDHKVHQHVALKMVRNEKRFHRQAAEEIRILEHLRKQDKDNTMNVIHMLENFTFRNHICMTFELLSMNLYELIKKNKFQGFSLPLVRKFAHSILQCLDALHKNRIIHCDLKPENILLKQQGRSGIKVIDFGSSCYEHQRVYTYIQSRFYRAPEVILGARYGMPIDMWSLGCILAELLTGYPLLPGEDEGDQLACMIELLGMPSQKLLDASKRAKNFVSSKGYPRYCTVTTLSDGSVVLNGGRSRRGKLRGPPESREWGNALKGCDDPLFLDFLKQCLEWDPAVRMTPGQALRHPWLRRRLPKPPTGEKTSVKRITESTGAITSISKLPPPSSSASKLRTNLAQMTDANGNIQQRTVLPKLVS
# LYN (human) = LYN (human) (UniProt P07948)
# LYN (human), sequence (P07948 whole entry, looked up): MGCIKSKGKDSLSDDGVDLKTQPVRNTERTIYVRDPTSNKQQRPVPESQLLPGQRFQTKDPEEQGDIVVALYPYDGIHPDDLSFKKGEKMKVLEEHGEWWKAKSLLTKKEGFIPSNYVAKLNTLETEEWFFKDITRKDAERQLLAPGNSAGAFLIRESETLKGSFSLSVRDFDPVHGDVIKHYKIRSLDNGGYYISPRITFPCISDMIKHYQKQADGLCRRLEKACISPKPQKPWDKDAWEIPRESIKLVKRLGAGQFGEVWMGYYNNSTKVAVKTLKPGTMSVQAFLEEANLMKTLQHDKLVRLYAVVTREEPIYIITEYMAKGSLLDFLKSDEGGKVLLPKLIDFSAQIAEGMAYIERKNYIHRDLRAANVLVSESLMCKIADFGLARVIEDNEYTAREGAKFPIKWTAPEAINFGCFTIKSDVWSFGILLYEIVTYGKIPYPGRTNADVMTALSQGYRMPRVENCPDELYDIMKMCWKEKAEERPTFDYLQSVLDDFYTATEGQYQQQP
# CSNK1A1 (human) = CSNK1A1 (human) (UniProt P48729)
# CDK2 CCNE1 (human) = CDK2 CCNE1 (human) (UniProt P24941+P24864)
# CAMKK1 (human) = CAMKK1 (human) (UniProt Q8N5S9)
# JAK2 JH1 JH2 (human) = JAK2 JH1 JH2 (human) (UniProt O60674)
# FYN (human) = FYN (human) (UniProt P06241)
# MAPK8 (human) = MAPK8 (human) (UniProt P45983)
# CDK7 CCNH MNAT1 (human) = CDK7 CCNH MNAT1 (human) (UniProt P50613+P51948+P51946)
# CDK7 CCNH MNAT1 (human), sequence (P50613 whole entry, looked up): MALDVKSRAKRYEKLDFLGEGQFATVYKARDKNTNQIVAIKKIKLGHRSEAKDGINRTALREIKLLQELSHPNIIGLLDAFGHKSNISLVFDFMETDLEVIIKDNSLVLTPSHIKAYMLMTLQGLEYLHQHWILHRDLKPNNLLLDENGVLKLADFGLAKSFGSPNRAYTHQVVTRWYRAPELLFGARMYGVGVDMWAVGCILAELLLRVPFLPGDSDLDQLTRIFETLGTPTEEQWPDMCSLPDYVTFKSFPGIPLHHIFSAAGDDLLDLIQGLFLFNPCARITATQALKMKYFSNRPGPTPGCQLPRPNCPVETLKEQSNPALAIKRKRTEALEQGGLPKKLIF
# CDK7 CCNH MNAT1 (human), sequence (P51946 whole entry, looked up): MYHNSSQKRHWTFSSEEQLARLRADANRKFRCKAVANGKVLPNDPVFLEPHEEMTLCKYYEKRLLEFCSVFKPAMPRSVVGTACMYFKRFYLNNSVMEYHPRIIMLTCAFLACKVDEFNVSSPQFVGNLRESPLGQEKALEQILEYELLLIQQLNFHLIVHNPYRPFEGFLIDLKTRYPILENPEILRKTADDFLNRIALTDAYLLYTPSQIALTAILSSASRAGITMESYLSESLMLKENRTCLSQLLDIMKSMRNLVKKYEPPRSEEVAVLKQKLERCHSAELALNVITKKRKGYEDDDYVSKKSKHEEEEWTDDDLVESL
# CDK7 CCNH MNAT1 (human), sequence (P51948 whole entry, looked up): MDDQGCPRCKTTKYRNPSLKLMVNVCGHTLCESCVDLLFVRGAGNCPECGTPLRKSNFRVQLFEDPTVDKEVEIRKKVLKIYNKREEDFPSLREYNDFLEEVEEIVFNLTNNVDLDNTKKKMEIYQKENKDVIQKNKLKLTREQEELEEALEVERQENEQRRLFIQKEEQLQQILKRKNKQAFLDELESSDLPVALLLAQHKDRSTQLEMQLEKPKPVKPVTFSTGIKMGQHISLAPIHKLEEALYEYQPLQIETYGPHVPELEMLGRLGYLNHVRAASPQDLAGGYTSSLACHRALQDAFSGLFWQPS
# DAPK3 (human) = DAPK3 (human) (UniProt O43293)
# MAPK1 (human) = MAPK1 (human) (UniProt P28482)
# MAPK1 (human), sequence (P28482 whole entry, looked up): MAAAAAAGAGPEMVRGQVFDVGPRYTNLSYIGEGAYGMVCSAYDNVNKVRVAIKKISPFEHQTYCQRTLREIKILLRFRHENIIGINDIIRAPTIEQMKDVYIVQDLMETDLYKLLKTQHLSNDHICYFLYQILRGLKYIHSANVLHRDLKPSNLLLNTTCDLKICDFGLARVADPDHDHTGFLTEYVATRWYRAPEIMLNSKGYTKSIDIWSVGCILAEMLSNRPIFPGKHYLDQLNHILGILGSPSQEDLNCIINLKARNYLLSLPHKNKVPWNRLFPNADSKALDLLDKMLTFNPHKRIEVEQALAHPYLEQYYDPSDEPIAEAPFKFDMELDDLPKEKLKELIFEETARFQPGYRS
# CAMKK2 (human) = CAMKK2 (human) (UniProt Q96RR4)
# CAMK1D (human) = CAMK1D (human) (UniProt Q8IU85)
# MAPK14 (human) = MAPK14 (human) (UniProt Q16539)
# FLT1 (human) = FLT1 (human) (UniProt P17948)
# [2] = molecular target: TYK2 JH1 catalytic (human) (UniProt P29597)
# TYK2 JH1 catalytic (human), sequence (P29597 whole entry, looked up): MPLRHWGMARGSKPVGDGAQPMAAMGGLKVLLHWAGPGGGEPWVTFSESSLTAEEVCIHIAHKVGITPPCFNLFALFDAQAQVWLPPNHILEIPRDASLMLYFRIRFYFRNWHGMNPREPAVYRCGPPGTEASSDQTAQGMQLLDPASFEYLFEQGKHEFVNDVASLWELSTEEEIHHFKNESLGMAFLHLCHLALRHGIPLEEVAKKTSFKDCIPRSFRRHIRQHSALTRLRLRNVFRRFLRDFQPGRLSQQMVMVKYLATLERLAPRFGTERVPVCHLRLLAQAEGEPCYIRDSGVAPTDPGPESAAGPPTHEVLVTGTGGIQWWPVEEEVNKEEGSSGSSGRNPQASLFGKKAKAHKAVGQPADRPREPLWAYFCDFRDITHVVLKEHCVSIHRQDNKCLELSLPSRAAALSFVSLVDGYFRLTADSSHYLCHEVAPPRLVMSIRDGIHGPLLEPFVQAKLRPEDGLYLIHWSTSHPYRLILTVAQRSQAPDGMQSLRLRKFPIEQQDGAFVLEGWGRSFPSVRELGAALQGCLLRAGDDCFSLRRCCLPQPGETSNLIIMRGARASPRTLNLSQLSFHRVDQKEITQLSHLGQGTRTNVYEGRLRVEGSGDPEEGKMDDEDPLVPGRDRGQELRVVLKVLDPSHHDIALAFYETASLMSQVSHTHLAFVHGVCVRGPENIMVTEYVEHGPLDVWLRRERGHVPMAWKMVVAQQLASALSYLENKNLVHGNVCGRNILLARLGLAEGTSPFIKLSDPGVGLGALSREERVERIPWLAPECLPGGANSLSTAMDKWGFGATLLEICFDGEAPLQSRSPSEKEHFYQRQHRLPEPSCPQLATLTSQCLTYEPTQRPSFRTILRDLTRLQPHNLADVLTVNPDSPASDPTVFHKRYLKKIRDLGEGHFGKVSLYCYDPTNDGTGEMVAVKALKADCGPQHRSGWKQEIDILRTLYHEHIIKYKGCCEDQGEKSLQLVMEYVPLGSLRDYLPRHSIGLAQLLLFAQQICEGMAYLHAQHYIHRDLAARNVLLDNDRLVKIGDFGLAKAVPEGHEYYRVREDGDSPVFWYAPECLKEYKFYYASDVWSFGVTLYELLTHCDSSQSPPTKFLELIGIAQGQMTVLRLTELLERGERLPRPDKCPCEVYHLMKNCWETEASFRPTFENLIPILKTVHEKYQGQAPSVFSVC
# TTK (human) = TTK (human) (UniProt P33981)
# RAF1 (human), sequence (P04049 whole entry, looked up): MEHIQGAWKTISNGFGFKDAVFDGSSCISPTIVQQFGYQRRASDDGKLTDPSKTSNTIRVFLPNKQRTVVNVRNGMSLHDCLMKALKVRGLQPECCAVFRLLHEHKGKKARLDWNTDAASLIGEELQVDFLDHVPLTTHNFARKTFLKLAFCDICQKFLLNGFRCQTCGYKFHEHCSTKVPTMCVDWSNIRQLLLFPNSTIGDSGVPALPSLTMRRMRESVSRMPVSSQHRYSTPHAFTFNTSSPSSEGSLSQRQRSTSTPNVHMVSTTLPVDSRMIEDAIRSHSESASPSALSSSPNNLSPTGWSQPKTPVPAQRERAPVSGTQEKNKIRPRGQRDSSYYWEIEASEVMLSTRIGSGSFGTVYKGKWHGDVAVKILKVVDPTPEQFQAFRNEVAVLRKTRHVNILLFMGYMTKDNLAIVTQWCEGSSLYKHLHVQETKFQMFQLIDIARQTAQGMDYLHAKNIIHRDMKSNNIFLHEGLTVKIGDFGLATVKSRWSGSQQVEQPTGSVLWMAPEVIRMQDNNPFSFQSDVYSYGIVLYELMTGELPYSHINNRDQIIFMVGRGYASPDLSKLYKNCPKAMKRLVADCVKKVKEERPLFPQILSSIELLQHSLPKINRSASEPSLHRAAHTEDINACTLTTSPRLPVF
compound,measurement,setting,value
COc1cc2ncnc(Nc3ccc(Oc4ccccc4)cc3)c2cc1OC,residual activity,RAF1 (human),88.9%
same,residual activity,NTRK2 (human),103%
same,residual activity,FER (human),75.7%
same,residual activity,CDK5 CDK5R1 p35 (human),115%
same,residual activity,NEK4 (human),96.8%
same,residual activity,[1],124%
same,residual activity,MAPK10 (human),103%
same,residual activity,DYRK1A (human),84.6%
same,residual activity,PIM3 (human),96.9%
same,residual activity,PAK1 (human),98.2%
same,residual activity,RPS6KA2 KD1 KD2 (human),98%
same,residual activity,MKNK2 (human),47.9%
same,residual activity,EPHB4 (human),85.5%
same,residual activity,CSNK1G3 (human),99.4%
same,residual activity,FGFR3 (human),87.1%
same,residual activity,PRKCG (human),84.6%
same,residual activity,PRKCB2 (human),92.8%
same,residual activity,MST1R (human),95.7%
same,residual activity,PKN1 (human),97.3%
same,residual activity,AKT1 (human),107%
same,residual activity,CAMK2A (human),102%
same,residual activity,FGFR2 (human),93.7%
same,residual activity,STK33 (human),96.3%
same,residual activity,PRKCA (human),101%
same,residual activity,DYRK2 (human),104%
same,residual activity,LYN (human),21.6% and 42.6%
same,residual activity,CSNK1A1 (human),98.2%
same,residual activity,CDK2 CCNE1 (human),87.8%
same,residual activity,CAMKK1 (human),93.1%
same,residual activity,JAK2 JH1 JH2 (human),95.6%
same,residual activity,FYN (human),26.9%
same,residual activity,MAPK8 (human),91.8%
same,residual activity,CDK7 CCNH MNAT1 (human),102%
same,residual activity,DAPK3 (human),96.9%
same,residual activity,MAPK1 (human),99.8%
same,residual activity,CAMKK2 (human),104%
same,residual activity,CAMK1D (human),99.7%
same,residual activity,MAPK14 (human),103%
same,residual activity,FLT1 (human),79.8%
same,residual activity,[2],107%
same,residual activity,TTK (human),90%
O=C1NC(=O)c2c1c1c3ccccc3[nH]c1n1cncc21,residual activity,RAF1 (human),108%
same,residual activity,NTRK2 (human),49%
same,residual activity,FER (human),47.9%
same,residual activity,CDK5 CDK5R1 p35 (human),67%
same,residual activity,NEK4 (human),88.4%
same,residual activity,[1],88.9%
same,residual activity,MAPK10 (human),96%
same,residual activity,DYRK1A (human),89.1%
same,residual activity,PIM3 (human),4.48%
same,residual activity,PAK1 (human),93.9%
same,residual activity,RPS6KA2 KD1 KD2 (human),32.7%
same,residual activity,MKNK2 (human),35%
same,residual activity,EPHB4 (human),105%
same,residual activity,CSNK1G3 (human),87%
same,residual activity,FGFR3 (human),85%
same,residual activity,PRKCG (human),117%
same,residual activity,PRKCB2 (human),94.7%
same,residual activity,MST1R (human),102%
same,residual activity,PKN1 (human),76.4%
same,residual activity,AKT1 (human),102%
same,residual activity,CAMK2A (human),55.1%
same,residual activity,FGFR2 (human),91.3%
same,residual activity,STK33 (human),52.3%
same,residual activity,PRKCA (human),66.5%
same,residual activity,DYRK2 (human),64.1%
same,residual activity,LYN (human),94.8% and 96.2%
same,residual activity,CSNK1A1 (human),51.6%
same,residual activity,CDK2 CCNE1 (human),66.5%
same,residual activity,CAMKK1 (human),63.5%
same,residual activity,JAK2 JH1 JH2 (human),117%
same,residual activity,FYN (human),97.7%
same,residual activity,MAPK8 (human),83.9%
same,residual activity,CDK7 CCNH MNAT1 (human),92.3%
same,residual activity,DAPK3 (human),29.6%
same,residual activity,MAPK1 (human),125%
same,residual activity,CAMKK2 (human),77.2%
same,residual activity,CAMK1D (human),91.9%
same,residual activity,MAPK14 (human),101%
same,residual activity,FLT1 (human),58%
same,residual activity,[2],85.4%
same,residual activity,TTK (human),79%
